{"source": "patent US9981043B2", "about": "“Analgesic conjugates” (priority 2013, dated 2018)", "type_in_all_cases": "in vivo", "key": {"live mice": {"test_system": "live mice", "assay": "Respiratory depression (Mouse Ox O2 saturation)", "conditions": "for % of mice with O2 Saturation less than 90%: i.t., LPS", "protocol": "Respiratory depression was measured in live mice using the Mouse Ox (small animal Oximeter from STARR Life Sciences Corp, Oakmont, Pa.). CollarClip™—(Un-Anesthetized Neck Sensor) for mice was used as the site for measuring the data. Day one of each experiment involved training the animals using a disposable CollarClip™. The collar was left on for approximately one hour. […] Mice were monitored for a 60-minute period, with measurements 10-20-30 and 60 minutes.\nRespiratory depression was measured in live mice using the Mouse Ox (small animal Oximeter from STARR Life Sciences Corp, Oakmont, Pa.). CollarClip™ (Un-Anesthetized Neck Sensor) for mice was used as the site for measuring the data.\nDay one of each experiment involved training the animals using a disposable CollarClip™. The collar was left on for approximately one hour.\nMice were monitored for a 60-minute period, with measurements 10-20-30 and 60 minutes."}, "LPS pretreated mice [1]": {"test_system": "LPS pretreated mice", "assay": "Radiant tail flick antinociception, LPS pretreated mice", "protocol": "Compounds were dissolved in 10% DMSO and then diluted to less than 1% DMSO in the test solutions. […] Compounds were administered in a 5-μl volume in conscious mice, either i.c.v. (Haley T J & McCormick W G, Br J Pharmacol Chemother, 1957, 12(1), 12-15) or i.t. (Hylden J L K & Wilcox G L, Eur. J. Pharmacol., 1980, 67(2-3), 313-316). Peak times were determined by comparing the percent maximal possible effect (% MPE) at 5, 10, 20 and 60 minutes after injection.\nThe first group mice were pretreated with lipopolysaccaride (LPS, 1 mg/kg, i.p. from Escherichia coli 0111:B4; Sigma-Aldrich, St. Louis, Mo.) for 24 hours before testing for antinociception of compounds 2-6 (Seo Y-J, et al., Pharmacol., Biochem. Behav., 2008, 91, 121-127). This group was compared to a group without pretreatment.\nThe tail flick assay is used first to test for antinociception as described by D'Amour and Smith (D'AMOUR FE & SMITH DL (1941) J. Pharmacol. Exp. Ther. 72(1):74-79) and modified by Dewey et al. (Dewey W L, Harris L S, Howes J F, & Nuite JA (1970) J. Pharmacol. Exp. Ther. 175(2):435-442). For the measurement of the tail-flick latency, mice are wrapped in a light cloth and held gently in one hand with the tail positioned in the apparatus (Tail Flick Analgesia Meter, Columbus Instruments, Columbus, Ohio) for radiant heat stimulus. The tail-flick response is elicited by applying radiant heat to the dorsal side of the tail. The intensity of the heat is set so that the mouse flicks its tail within 2 to 3 seconds. The test latency is measured before drug treatment (control) and again after the drug treatment (test) at the peak time of the compound; a 10 second maximum cut-off time is used to prevent damage to the tail. Antinociception is quantified according to the Harris L S & Pierson A K, J. Pharmacol. Exp. Ther., 1964, 143(2):141-148, as the percent maximal possible effect (% MPE), which is calculated as: % MPE=(Test−Control/10−Control)×100.\nAt least three groups of four to ten mice are used for each dose response curve. ED50 values with 95% confidence intervals (C.I.) are computed with GraphPad Prism 4 by using nonlinear regression methods."}, "LPS pretreated mice [2]": {"test_system": "LPS pretreated mice", "assay": "Acute (24 hour) tolerance, tail flick, LPS pretreated mice", "conditions": "for Tolerance: 24 hours", "protocol": "Acute tolerance utilizing the radiant tail flick assay was measured by comparing the ED80-90 dose on day 1 to the same dose measured 24 hours later on the same mouse. For the LPS pretreated mice, no additional LPS was given to the mice for the acute tolerance test. […] However, the effect was less robust 72 hours after the initial LPS injection. Thus confirming that the acute tolerance test was accurate for the LPS pretreated mice."}}, "note": "Where “and” joins values, the source holds several entries; their conditions need not be identical. Equal entries are not always repeated. Entries after “also recorded” stand apart in the source; their conditions may differ."}
{"compound": "Cc1cccc(C#Cc2cccc(OCCNC(=O)COCC(=O)NCCCCCNC(=O)COCC(=O)N[C@H]3CC[C@@]4(O)C5Cc6ccc(O)c7c6[C@@]4(CCN5C)[C@H]3O7)c2)n1", "note": "[Compound 4c, N-((4aS,7S,7aR,12bS)-4a,9-dihydroxy-3-methyl-2,3,4,4a,5,6,7,7a-octahydro-1H-4,12-methanobenzofuro[3,2-e]isoquinolin-7-yl)-2-((1-(3-((6-methylpyridin-2-yl)ethynyl)phenoxy)-4,8,16-trioxo-6-oxa-3,9,15-triazaheptadecan-17-yl)oxy)acetamide]", "values": [{"measurement": "safety margin", "setting": "live mice; compared with morphine", "value": "greater safety margin than morphine"}, {"measurement": "therapeutic index", "setting": "live mice; estimated", "value": "greater than a million"}, {"measurement": "% of mice with O2 Saturation less than 90%", "setting": "live mice; dose 50,000 times the ED90", "value": 0, "unit": "%"}, {"measurement": "% of mice with O2 Saturation less than 90%", "setting": "live mice; dose 100,000 times the ED90", "value": 100, "unit": "%"}, {"measurement": "respiratory depression", "setting": "live mice; mouse, in vivo", "value": "no tolerance or respiratory depression"}, {"measurement": "ED50 (CI) i.c.v.", "setting": "LPS pretreated mice [1]; LPS pretreated (1 mg/kg 24 hours i.p.), i.c.v.", "value": 374.9, "unit": "pmol/mouse"}, {"measurement": "ED50 (CI) i.t.", "setting": "LPS pretreated mice [1]; LPS pretreated (1 mg/kg 24 hours i.p.), i.t.", "value": "< 9 fmol/mouse and 9 fmol/mouse and 8.83 fmol/mouse"}, {"measurement": "antinociception", "setting": "LPS pretreated mice [1]; LPS pretreated, tail flick, dose of the acute tolerance test", "value": 97, "unit": "%"}, {"measurement": "% MPE remaining in 24 hour tolerance test", "setting": "LPS pretreated mice [2]; i.c.v., 24 hour", "value": "Still was 40% MPE"}, {"measurement": "Tolerance", "setting": "LPS pretreated mice [2]; i.c.v.", "value": 24, "unit": "hour tolerance"}, {"measurement": "Tolerance", "setting": "LPS pretreated mice [2]; i.t.", "value": "without tolerance; also recorded: No Tolerance"}]}
